# According to ChEMBL document CHEMBL1201862, “PubChem BioAssay data set” (2004):
# Several values for one entry are separate records, joined by “and”; a condition that tells them apart may be missing. Identical values can stand only once.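 The compound was tested at five concentrations on cells cultured in 96-well plates, with a 48-hour exposure period. GI50 = concentration required for 50% inhibition of growth.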 Activity calls are given as the source filed them. Rule as the data show it: active = GI50 up to about 1.1 µM and inactive = higher.
# What was measured:
# Test in all cases: NCI tumour cell line growth inhibition, 48 h
# U-251 = test system: U-251
# DU-145 = test system: DU-145
# IGROV-1 = test system: IGROV-1
# NCI-H460 = test system: NCI-H460
# NCI-H226 = test system: NCI-H226
# RXF 393 = test system: RXF 393
# HOP-92 = test system: HOP-92
# Hs-578T = test system: Hs-578T
# SNB-19 = test system: SNB-19
# SF-268 = test system: SF-268
# 786-0 = test system: 786-0
# NCI/ADR-RES = test system: NCI/ADR-RES
# SNB-75 = test system: SNB-75
# HCT-15 = test system: HCT-15
# ACHN = test system: ACHN
# CAKI-1 = test system: CAKI-1
# HOP-62 = test system: HOP-62
# A549 = test system: A549
# K562 = test system: K562
# SK-MEL-5 = test system: SK-MEL-5
# MOLT-4 = test system: MOLT-4
# BT-549 = test system: BT-549
# MCF7 = test system: MCF7
# M14 = test system: M14
# HL-60 = test system: HL-60
# NCI-H23 = test system: NCI-H23
# KM12 = test system: KM12
# SK-OV-3 = test system: SK-OV-3
# UO-31 = test system: UO-31
# OVCAR-4 = test system: OVCAR-4
# SW-620 = test system: SW-620
# RPMI-8226 = test system: RPMI-8226
# T47D = test system: T47D
# SR = test system: SR
# OVCAR-8 = test system: OVCAR-8
# SF-295 = test system: SF-295
# OVCAR-3 = test system: OVCAR-3
# LOX IMVI = test system: LOX IMVI
# COLO 205 = test system: COLO 205
# OVCAR-5 = test system: OVCAR-5
# SK-MEL-28 = test system: SK-MEL-28
# CCRF-CEM = test system: CCRF-CEM
# NCI-H522 = test system: NCI-H522
# TK-10 = test system: TK-10
# Malme-3M = test system: Malme-3M
# UACC-257 = test system: UACC-257
# SF-539 = test system: SF-539
# HCT-116 = test system: HCT-116
# PC-3 = test system: PC-3
# MDA-MB-435 = test system: MDA-MB-435
# SN12C = test system: SN12C
# MDA-MB-231 = test system: MDA-MB-231
# EKVX = test system: EKVX
# HCC 2998 = test system: HCC 2998
# SK-MEL-2 = test system: SK-MEL-2
# HT-29 = test system: HT-29
# UACC-62 = test system: UACC-62
smiles,measurement,setting,value
CC(=O)OCC1OC(n2c(S)c(C#N)c(-c3ccccc3)c(C#N)c2=O)C(OC(C)=O)C(OC(C)=O)C1OC(C)=O (stereo not drawn),GI50,U-251,23.8 µM (inactive) and 35.2 µM (inactive)
same,GI50,DU-145,58.3 µM (inactive)
same,GI50,IGROV-1,53 µM (inactive)
same,GI50,NCI-H460,50.2 µM (inactive) and > 88.7 µM (inactive)
same,GI50,NCI-H226,> 87.7 µM (inactive)
same,GI50,RXF 393,19.5 µM (inactive) and 18.5 µM (inactive)
same,GI50,HOP-92,31.3 µM (inactive) and 16.6 µM (inactive)
same,GI50,Hs-578T,38.8 µM (inactive)
same,GI50,SNB-19,32.2 µM (inactive)
same,GI50,SF-268,21.8 µM (inactive) and 33 µM (inactive)
same,GI50,786-0,30 µM (inactive) and 33.9 µM (inactive)
same,GI50,NCI/ADR-RES,> 100 µM (inactive)
same,GI50,SNB-75,26.2 µM (inactive) and 20.1 µM (inactive)
same,GI50,HCT-15,> 100 µM
same,GI50,ACHN,54.1 µM (inactive) and 78.5 µM (inactive)
same,GI50,CAKI-1,50.8 µM (inactive) and 61.9 µM (inactive)
same,GI50,HOP-62,21.7 µM (inactive) and 21.9 µM (inactive)
same,GI50,A549,> 100 µM (inactive)
same,GI50,K562,> 100 µM (inactive)
S=C1NN=C2C(=C3CCCC4C5CCCCC5N2C34)N1 (stereo not drawn),GI50,SK-MEL-5,82.6 µM (inactive)
same,GI50,MOLT-4,38 µM (inactive)
same,GI50,BT-549,> 100 µM (inactive)
same,GI50,DU-145,> 100 µM (inactive)
same,GI50,IGROV-1,> 100 µM (inactive)
same,GI50,MCF7,44.5 µM (inactive)
same,GI50,NCI-H226,0.678 µM (active)
same,GI50,M14,> 100 µM (inactive)
same,GI50,HOP-92,> 100 µM (inactive)
same,GI50,HL-60,> 100 µM (inactive)
same,GI50,NCI-H23,> 100 µM (inactive)
same,GI50,KM12,> 100 µM (inactive)
same,GI50,SK-OV-3,> 100 µM (inactive)
same,GI50,Hs-578T,> 100 µM (inactive)
same,GI50,UO-31,> 100 µM (inactive)
same,GI50,SNB-19,> 100 µM (inactive)
same,GI50,OVCAR-4,> 100 µM (inactive)
same,GI50,SW-620,> 100 µM (inactive)
same,GI50,RPMI-8226,28.4 µM (inactive)
same,GI50,T47D,24.8 µM (inactive)
same,GI50,SR,83.4 µM (inactive)
same,GI50,SF-268,> 100 µM (inactive)
same,GI50,OVCAR-8,> 100 µM (inactive)
same,GI50,SF-295,> 100 µM (inactive)
same,GI50,NCI/ADR-RES,> 100 µM (inactive)
same,GI50,OVCAR-3,> 100 µM (inactive)
same,GI50,LOX IMVI,56.4 µM (inactive)
same,GI50,COLO 205,33 µM (inactive)
same,GI50,OVCAR-5,> 100 µM (inactive)
same,GI50,HCT-15,> 100 µM
same,GI50,ACHN,> 100 µM (inactive)
same,GI50,CAKI-1,> 100 µM (inactive)
same,GI50,SK-MEL-28,> 100 µM (inactive)
same,GI50,CCRF-CEM,37.2 µM (inactive)
same,GI50,NCI-H522,62.2 µM (inactive)
same,GI50,TK-10,> 100 µM (inactive)
same,GI50,HOP-62,> 100 µM (inactive)
same,GI50,A549,> 100 µM (inactive)
same,GI50,Malme-3M,> 100 µM (inactive)
same,GI50,UACC-257,> 100 µM (inactive)
same,GI50,K562,38 µM (inactive)
Cc1c(CN)c(C)c(CN)c(C)c1CN,GI50,SK-MEL-5,> 100 µM (inactive)
same,GI50,MOLT-4,> 100 µM (inactive)
same,GI50,BT-549,> 100 µM (inactive)
same,GI50,SF-539,> 100 µM (inactive)
same,GI50,U-251,> 100 µM (inactive)
same,GI50,DU-145,> 100 µM (inactive)
same,GI50,HCT-116,> 100 µM (inactive)
same,GI50,IGROV-1,> 100 µM (inactive)
same,GI50,NCI-H460,> 100 µM (inactive)
same,GI50,MCF7,> 100 µM (inactive)
same,GI50,NCI-H226,> 100 µM (inactive)
same,GI50,M14,> 100 µM (inactive)
same,GI50,PC-3,> 100 µM (inactive)
same,GI50,MDA-MB-435,> 100 µM (inactive)
same,GI50,HOP-92,> 100 µM (inactive)
same,GI50,HL-60,> 100 µM (inactive)
same,GI50,NCI-H23,27 µM (inactive)
same,GI50,KM12,> 100 µM (inactive)
same,GI50,SN12C,> 100 µM (inactive)
same,GI50,SNB-19,> 100 µM (inactive)
same,GI50,OVCAR-4,> 100 µM (inactive)
same,GI50,SW-620,> 100 µM (inactive)
same,GI50,MDA-MB-231,> 100 µM (inactive)
same,GI50,RPMI-8226,> 100 µM (inactive)
same,GI50,SR,> 100 µM (inactive)
same,GI50,SF-268,> 100 µM (inactive)
same,GI50,OVCAR-8,> 100 µM (inactive)
same,GI50,SF-295,> 100 µM (inactive)
same,GI50,786-0,> 100 µM (inactive)
same,GI50,NCI/ADR-RES,> 100 µM (inactive)
same,GI50,LOX IMVI,> 100 µM (inactive)
same,GI50,COLO 205,> 100 µM (inactive)
same,GI50,OVCAR-5,> 100 µM (inactive)
same,GI50,SNB-75,> 100 µM (inactive)
same,GI50,HCT-15,> 100 µM
same,GI50,ACHN,> 100 µM (inactive)
same,GI50,CAKI-1,> 100 µM (inactive)
same,GI50,SK-MEL-28,> 100 µM (inactive)
same,GI50,CCRF-CEM,> 100 µM (inactive)
same,GI50,NCI-H522,86.7 µM (inactive)
same,GI50,TK-10,> 100 µM (inactive)
same,GI50,HOP-62,81.5 µM (inactive)
same,GI50,EKVX,> 100 µM (inactive)
same,GI50,HCC 2998,> 100 µM (inactive)
same,GI50,A549,> 100 µM (inactive)
same,GI50,Malme-3M,> 100 µM (inactive)
same,GI50,SK-MEL-2,> 100 µM (inactive)
same,GI50,UACC-257,> 100 µM (inactive)
same,GI50,K562,> 100 µM (inactive)
same,GI50,HT-29,> 100 µM (inactive)
Sc1nn2c(COc3ccc(Cl)cc3)nnc2s1,GI50,SK-MEL-5,> 100 µM (inactive)
same,GI50,MOLT-4,> 100 µM (inactive)
same,GI50,SF-539,> 100 µM (inactive)
same,GI50,U-251,> 100 µM (inactive)
same,GI50,DU-145,> 100 µM (inactive)
same,GI50,HCT-116,> 100 µM (inactive)
same,GI50,IGROV-1,> 100 µM (inactive)
same,GI50,NCI-H460,> 100 µM (inactive)
same,GI50,MCF7,> 100 µM (inactive)
same,GI50,NCI-H226,> 100 µM (inactive)
same,GI50,RXF 393,> 100 µM (inactive)
same,GI50,M14,> 100 µM (inactive)
same,GI50,PC-3,> 100 µM (inactive)
same,GI50,MDA-MB-435,> 100 µM (inactive)
same,GI50,HOP-92,> 100 µM (inactive)
same,GI50,HL-60,> 100 µM (inactive)
same,GI50,NCI-H23,> 100 µM (inactive)
same,GI50,KM12,> 100 µM (inactive)
same,GI50,SK-OV-3,> 100 µM (inactive)
same,GI50,UO-31,> 100 µM (inactive)
same,GI50,SN12C,> 100 µM (inactive)
same,GI50,SNB-19,> 100 µM (inactive)
same,GI50,OVCAR-4,> 100 µM (inactive)
same,GI50,SW-620,> 100 µM (inactive)
same,GI50,MDA-MB-231,> 100 µM (inactive)
same,GI50,RPMI-8226,> 100 µM (inactive)
same,GI50,T47D,> 100 µM (inactive)
same,GI50,SR,> 100 µM (inactive)
same,GI50,SF-268,> 100 µM (inactive)
same,GI50,OVCAR-8,> 100 µM (inactive)
same,GI50,SF-295,> 100 µM (inactive)
same,GI50,786-0,> 100 µM (inactive)
same,GI50,NCI/ADR-RES,> 100 µM (inactive)
same,GI50,OVCAR-3,> 100 µM (inactive)
same,GI50,COLO 205,> 100 µM (inactive)
same,GI50,OVCAR-5,> 100 µM (inactive)
same,GI50,SNB-75,> 100 µM (inactive)
same,GI50,HCT-15,81.8 µM
same,GI50,ACHN,> 100 µM (inactive)
same,GI50,CAKI-1,> 100 µM (inactive)
same,GI50,SK-MEL-28,> 100 µM (inactive)
same,GI50,NCI-H522,> 100 µM (inactive)
same,GI50,TK-10,> 100 µM (inactive)
same,GI50,HOP-62,> 100 µM (inactive)
same,GI50,EKVX,> 100 µM (inactive)
same,GI50,HCC 2998,> 100 µM (inactive)
same,GI50,A549,> 100 µM (inactive)
same,GI50,UACC-62,> 100 µM (inactive)
same,GI50,Malme-3M,> 100 µM (inactive)
same,GI50,SK-MEL-2,> 100 µM (inactive)
same,GI50,UACC-257,> 100 µM (inactive)
same,GI50,K562,> 100 µM (inactive)
same,GI50,HT-29,> 100 µM (inactive)
